The values below come from US9629851B2, “ROCK in combination with MAPK pathway” (Stichting Het Nederlands Kanker Instituut—Antoni van …, priority 2013, dated 2017).

For assay [1], the system named is NRAS mutant melanoma patients. Particulars: cited from earlier work.
For assay [2], the system named is BRAF mutant melanoma patients. The conditions noted are these: cited from earlier work.
Assay [3] has as its system ERK inhibitor resistant sublines of BLM. Put plainly: inhibitor sensitivity of resistant sublines versus parental line. The assay is classed as cell-based, human. The conditions noted are these: sublines grown in 1 μM SCH772984. As for the experimental part:
NRAS Mutation: Q61R BLM, SK-MEL-147. BRAF mutation: Mel 95.03, mel 888. All cell lines were cultured in Dulbecco's modified Eagle's Medium (DMEM, Gibco) supplemented with 9% fetal calf serum (Sigma) and 1% glutamine. To generate MEK and ERK inhibitor resistant sublines, cells were plated on 10 cm dishes. Medium containing 1 μM SCH772984 was added the next day and changed twice a week. After 2 weeks colonies were picked and expanded in the presence of the inhibitor. In addition, multiple colonies per 10 cm dish were trypsinized and expanded to obtain resistant pools.
For short-term viability assays of inhibitors, cells were plated in 96-well format and treated on the next day with a dilution range of one inhibitor with or without a second inhibitor with a concentration as mentioned in the figure. After 3 days, cells were incubated with CellTiter-Blue (Promega) and fluorescence was measured with a TECAN Infinite M200 microplate reader. For proliferation assays, equal cell numbers were plated on 6 well dishes. The next day, cells were treated with one or more inhibitors and refreshed with medium with inhibitors every 3-4 days. Cells were stained with crystal violet after 7-11 days of treatment. […]
We assessed sensitivity to a panel of other inhibitors including ROCK inhibitors but observed mainly slight differences.

Assay [4] deals with NRAS mutant melanoma cells SK-MEL-147. Put plainly: SK-MEL-147 xenograft in NOD/SCID mice. The assay is classed as in vivo. Particulars: GSK1120212 0.05 mg/kg or GSK269962A 10 mg/kg alone, oral gavage once daily.
Procedure: Melanoma cells (5*10^5 SK-MEL-147) were subcutaneously injected into both flanks of NOD/SCID mice. Tumor sizes were measured with a caliper and tumor volume was calculated by the formula (a*b^2)/2 with ‘a’ being the longest diameter and ‘b’ the respective perpendicular diameter of the tumor. After the tumors reached a size of 20-100 mm3, mice received by oral gavage either vehicle, GSK1120212 (MEKi), (0.05 mg/kg), 10 mg/kg GSK269962A (ROCKi) or both drugs. N=10 for each group, except for ROCKi n=8. Error bars represent standard error of the mean (SEM).
Six to ten week old male NOD/SCID mice were subcutaneously injected with 5*10^5 cells into both flanks. After the tumors reached a size of 50-150 mm^3 mice were treated with 0.05 or 0.1 mg/kg MEK inhibitor (GSK1120212) and/or ROCK inhibitor (GSK266962A, 10 mg/kg). Both GSK1120212 and GSK269962A were applied by oral gavage (in 5% Tween80, 3.25% ethanol, DMSO for GSK1120212 and in 10% Tween80, 6.5% ethanol, 10% DMSO for GSK266962A). Tumors were measured twice a week with a caliper. Tumor volume was calculated by the formula (a*b2)/2, with ‘a’ being the longest diameter and b′ the respective perpendicular diameter of the tumor. Mice were euthanized by CO2 when tumors reached a volume of 1 cm3, according to a protocol approved by the Institutional Animal Experiment Ethics Committee. […]
The subject of assay [5] is NRAS mutant melanoma cell lines. Kind of assay: short-term viability assay (CellTiter-Blue, 3 days). The assay is classed as cell-based, human. The conditions noted are these: treatment-naïve NRAS mutant melanoma cell lines; ROCK inhibitor added to MAPK/ERK pathway inhibitor. As for the experimental part:
FIG. 1A: NRAS mutant melanoma cell lines are sensitive to combinations of ROCK and MEK or ERK inhibitors; Cells were treated with a dilution series of ROCK inhibitor (left panel), MEK inhibitor (middle panel) or ERK inhibitor (right panel) either alone or in combination with MEK/ERK/ROCK inhibitor as indicated. After 3 days total cell numbers were determined with a Cell Titer-Blue assay. The y-axis represents the percentage of living cells.
For short-term viability assays of inhibitors, cells were plated in 96-well format and treated on the next day with a dilution range of one inhibitor with or without a second inhibitor with a concentration as mentioned in the figure. After 3 days, cells were incubated with CellTiter-Blue (Promega) and fluorescence was measured with a TECAN Infinite M200 microplate reader. For proliferation assays, equal cell numbers were plated on 6 well dishes. The next day, cells were treated with one or more inhibitors and refreshed with medium with inhibitors every 3-4 days. […]
To model inhibitor sensitivity of treatment-naïve NRAS mutant melanoma we made use of a panel of human metastatic melanoma cell lines carrying activating mutations in NRAS codon 61 (R, K, N), including cell lines available in the prior art. […] Presence of the NRAS mutation and absence of exon 15 BRAF mutations has been determined by conventional sequencing. […]

The target in assay [6] is c-Raf (Homo sapiens, UniProt P04049). The conditions noted are these: B-Raf less than c-Raf; cited from earlier work.
Assay [7] deals with MEK. Particulars: cited from earlier work.

Chain of c-Raf (P04049 whole entry): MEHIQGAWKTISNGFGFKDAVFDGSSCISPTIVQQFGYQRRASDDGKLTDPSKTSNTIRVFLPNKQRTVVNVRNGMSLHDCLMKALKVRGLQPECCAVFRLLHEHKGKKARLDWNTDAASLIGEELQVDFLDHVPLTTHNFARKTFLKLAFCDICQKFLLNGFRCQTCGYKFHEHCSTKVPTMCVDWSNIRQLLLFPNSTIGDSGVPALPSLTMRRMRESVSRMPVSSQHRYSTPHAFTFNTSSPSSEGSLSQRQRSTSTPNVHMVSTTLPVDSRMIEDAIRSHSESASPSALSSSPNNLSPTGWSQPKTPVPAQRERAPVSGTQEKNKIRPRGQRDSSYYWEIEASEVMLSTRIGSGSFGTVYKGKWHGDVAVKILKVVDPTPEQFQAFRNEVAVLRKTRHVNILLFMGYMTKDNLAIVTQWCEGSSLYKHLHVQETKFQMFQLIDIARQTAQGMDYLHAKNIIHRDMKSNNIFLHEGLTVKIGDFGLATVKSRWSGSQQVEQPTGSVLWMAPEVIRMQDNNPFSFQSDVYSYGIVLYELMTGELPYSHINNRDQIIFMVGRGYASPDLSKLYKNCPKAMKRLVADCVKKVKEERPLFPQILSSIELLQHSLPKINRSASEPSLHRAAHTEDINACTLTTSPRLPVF

Regarding `Cn1cnc2c(F)c(Nc3ccc(Br)cc3F)c(C(=O)NOCCO)cc21` [MEK162], the entries for the “median time to develop resistance” value in assay [1] and in assay [2] were 3.7 months and 3.3 months, respectively.

`Oc1cccc(-c2nc(N3CCOCC3)c3oc4ncccc4c3n2)c1` [PI-103]: in assay [3], the “sensitivity of resistant sublines compared with parental line” value was “as sensitive to the dual PI3K/mTOR inhibitor PI-103 as the parental line”.

For the compound `CCn1c(-c2nonc2N)nc2cnc(Oc3cccc(NC(=O)c4ccc(OCCN5CCOCC5)cc4)c3)cc21` [GSK269962A], in assay [4], the “effect as single agent” value is reported as “only a weak effect as single agents”. Further, in assay [5], the “sensitization to MEK or ERK inhibitors” value is listed as “sensitizers”.

In the case of `O=S(=O)(c1cccc2cnccc12)N1CCCNCC1` [Fasudil], in assay [5], the “sensitization to MEK or ERK inhibitors” value is given as “sensitizers”.

`Cc1ccc(NC(=O)c2cccc(N(C)C)c2)cc1NC(=O)c1ccc(O)cc1` [ZM 336372]: the “potency for B-Raf relative to c-Raf” value in assay [6] is on record as “c-Raf, (B-Raf 10fold”.

On to `O=C(NOCC1CC1)c1ccc(F)c(F)c1Nc1ccc(I)cc1Cl` [PDI 84352], for which, in assay [7], the “specificity and potency compared to other known MEK inhibitors” value was “high degree of specificity and potency”.
